Data from patent publication US7390826B2, “Inhibitors of animal cell motility and growth” (The Board of Trustees of The University of Illinois, priority 2002, dated 2008).
Like-named read-outs stand apart in the source and are kept apart here.

Experiments:
Xenopus laevis embryos = assay: frog embryo morphogenesis assay (scoring of developmental defects); format: in vivo; details: for EC50: Xenopus laevis, 72 h
Excerpt: In order to identify compounds that specifically perturb morphogenesis in the frog embryo, a suitable method for scoring embryos by characteristic defects was developed. A useful starting point was the “dorso-anterior index” (DAI). The DAI originally was constructed by adding new morphological characteristics to the older “index of axis deficiency” (S. R. Scharf et al., Dev. Biol., 99, 75-87 (1983)). The DAI is a scale of dorsoanterior development wherein embryos are assigned a score based on degree of dorsoanterior phenotype (K. R. Kao et al., Dev. Biol., 127, 64-77 (1988)). The scale encompasses a score of 0 (for the most axis-deficient or ventralized embryos) to 10 (for embryos with the most enhanced dorsoanterior structures), with a score of 5 signifying a normal embryo.
Because the DAI focuses only on dorsoanterior phenotypes, other categories were added to describe possible defects more comprehensively, with an emphasis on characteristics that are easily and unambiguously recognized in intact embryos, and that are diagnostic of possible effects on morphogenesis during gastrulation and neurulation. The most useful and readily scored categories that covered the most frequent deficiencies were: reduced anterior structures and microcephaly, delayed appearance or absence of eye pigmentation, overall shortness along the anteroposterior axis, bent axis, bent tail only, reduced posterior structures/tail, malformed or reduced fins, delayed or failed neural tube closure (neural fold fusion), abnormal pigmentation pattern, ventral swelling (edema), and delayed or abnormal visceral organogenesis and yolk resorption. In addition, blastopore closure, an earlier process that marks the completion of gastrulation, was observed.
In these tests, test compounds were added individually to wells each containing 4-8 embryos in 12-well plates. Embryos at stage 8.5-9, according to the classification of Nieuwkoop and Faber (P. I. Nieuwkoop et al., Normal Table of Xenopus laevis (Daudin). Amsterdam: North-Holland Publ.) (1967)), were used because these are late blastula stages before gastrulation begins at stage 10, which allowed focusing primarily on compounds that affect morphogenetic events in gastrulation and neurulation. These embryos, therefore, have undergone a midblastula transition at stage 8 (cleavage division 12) when zygotic transcription begins (J. Newport et al., Cell, 30, 675-686 (1982); J. Newport et al., Cell, 30, 687-696 (1982)) but have not yet started the morphogenetic movements of gastrulation.
Standard procedures were used in the care of animals, gamete preparation, fertilization of oocytes, and culture of embryos (B. K. Kay et al., Methods in Cell Biology, Volumn 36 (San Diego: Academic Press, Inc.) (1991)). In order to stimulate ovulation, female frogs were injected with 500 units of human chorionic gonadotropin (HCG). Eggs were squeezed from female frogs 12 hours later. Testes were removed from euthanized male frogs that had been primed with 50 units of HCG 4-6 hours earlier. The testes were stored at 4° C. in single strength Marc's Modified Ringer's solution with 50 μg/ml gentamycin and used for no more than 10 days. Small pieces of testes were macerated and spread over eggs for in vitro fertilization in Petri dishes. Fertilized eggs were placed in one-tenth strength Modified Barth's Saline (MBS) with 50 μg/ml gentamycin at constant temperature (19° C.) in a temperature-controlled incubator and development allowed to proceed under these conditions. Embryos were dejellied by briefly swirling them in a solution of 2% (w/v) L-cysteine, pH 8.0. The embryos then were rinsed extensively with one-tenth strength MBS to wash out the cysteine. Experiments were started within an hour of dejellying the embryos.
Experiments were carried out in 12-well flat-bottom polystyrene plates with 4-8 embryos per well in 1.0 ml of one-tenth strength MBS with 50 μg/ml gentamycin at 19° C. […]

MDCK cell monolayers = assay: filamentous actin staining (rhodamine-phalloidin) of wounded MDCK monolayers; format: cell-based, canine; details: 50 μM; 12 hours after wounding
Procedure: Although formation of perimarginal actin bundles is not required for wound closure in this system, these actin bundles may help to distribute force in the first row of cells from actively protruding and moving cells to less-actively motile cells, thus making the closure process more regular and uniform than it would be otherwise.
Filamentous actin staining: MDCK cell mono-layers on glass coverslips-were fixed with 3.7% formaldehyde in PBS 12 hours after wounding. Cells were permeabilized with 0.1% (w/v) TRITONO X-100 in PBS, stained with 50 nM tetramethylrhodamine-conjugated phalloidin in PBS, and washed twice with PBS. Coverslips were mounted in 90% glycerol/10% ten strength PBS with 2 mg/mL p-phenylenediamine on glass slides and then examined by fluorescence microscopy.

Staphylococcus aureus = assay: bacterial growth (absorbance at 600 nm); format: cell-based; details: 50 μM; for absorbance at 600 nm: mean ± SEM
Procedure: (§1) Reported values are the mean ±SEM for triplicate samples.
(§2) Bacterial growth: Staphylococcus aureus or Escherichia coli (DH5a strain) were grown in Luria-Bertani (LB) medium for 12 hours at 37° C. in a shaking incubator. Dilutions into fresh LB medium with 0.1% DMSO (solvent carrier control) or 50 μM compound 1 were made to an absorbance at 600 nm (A600) of about 0.1. Bacteria were incubated at 37° C. with shaking during the experiment, and A600 measurements were made at set time intervals during log growth phase until the plateau phase was reached.

[1] = tested on: Escherichia coli (DH5a strain); assay: bacterial growth (absorbance at 600 nm); format: cell-based; details: 50 μM
Procedure: as §1, §2

MDCK cells = assay: MDCK cell proliferation; format: cell-based, canine; details: 50 μM
Procedure: In FIG. 2A, cells were plated at low cell density (1×10^4 cells/mL) and allowed to attach and begin to grow for 48 hours prior to the start of experiment. The treatments were 0.1% DMSO (control, n=9 cultures), 50 μM compound 1 (n=8), or 50 μM compound 11 (n=7). Reported values are mean with SEM of the percent increase in cell number from 0 to 48 hours after addition of compound 1.
The values were mean with SEM of the percent increase in cell number another 48 hours after replacement of medium containing 50 μM compound 1 (n=8 cultures) or 0.1% DMSO (n=9) with fresh medium containing 0.1% DMSO.
MDCK cell proliferation: MDCK cells were plated on multiwell tissue culture plates at low density ([…]). Cells were allowed to attach and begin to grow for 48 hours before the start of the experiment. Fresh medium with or without compound was then added, and cells were incubated for 48 hours. At both 0 and 48 hours, some of the parallel wells for control and compound treatments were washed twice with PBS and treated with trypsin/EDTA solution to detach the cells. An equal volume of medium was added, cells were collected and counted using a hemacytometer. For reversibility, some of the parallel cultures for both control and compound treatments were grown another 48 hours after washing twice with PBS and replacing medium with fresh compound-free medium. At both the time of washing out and 48 hours later, some of the parallel wells for control and compound treatments were washed twice with PBS, detached from the plates with trypsin/EDTA solution, and the number of cells was counted.

## C/C=C/C(=O)N1C(=O)OC[C@@H]1Cc1ccccc1 [Compound 1, (4S)-3-((E)-2-butenoyl)-4-benzyl-2-oxazolidinone]
Xenopus laevis embryos; 15 μM added at 2-cell stage
  reduction in the length of the tail: evident
Xenopus laevis embryos; 15 μM added at 2-cell stage, 48 hours
  effects on anteroposterior elongation, head and eye development, visceral organogenesis and yolk resorption: significant effects
Xenopus laevis embryos; 15 μM added at stage 8.5-9, 48, 72 or 96 hours after treatment, Student's t-test
  anteroposterior length, head development, eye pigmentation, visceral organogenesis and yolk resorption versus control embryos: significantly different
Xenopus laevis embryos; 15 μM, stage 8.5-9 embryos
  exposure before washing out with no significant effect on later development: up to 9 hours
  exposure resulting in significant defects in postneurula analyses: ≥ 12 h
Xenopus laevis embryos; read-out: EC50 with respect to the defective phenotype at 72 hr following treatment
  EC50: 13.9 µM
Xenopus laevis embryos; read-out: log EC50+standard error of log EC50 (converted)
  EC50: 13.9 µM
Xenopus laevis embryos; frog embryos
  concentration lethal to the embryos: 2 to 3 times the EC50
Xenopus laevis embryos; treatment at stage 8.5-9 or 2-cell stage
  blastopore closure in gastrulating embryos: delayed
MDCK cell monolayers
  formation of filamentous actin bundles at wound margin: did not affect formation of filamentous actin bundles
Staphylococcus aureus
  inhibition of growth of Staphylococcus aureus (Gram-positive): does not inhibit the growth
Staphylococcus aureus; 0 hours
  absorbance at 600 nm: 0.117 ± 0.037
Staphylococcus aureus; 1 hours
  absorbance at 600 nm: 0.160 ± 0.056
Staphylococcus aureus; 2 hours
  absorbance at 600 nm: 0.332 ± 0.130
Staphylococcus aureus; 3 hours
  absorbance at 600 nm: 0.615 ± 0.162
Staphylococcus aureus; 4 hours
  absorbance at 600 nm: 0.937 ± 0.181
Staphylococcus aureus; 27 hours
  absorbance at 600 nm: 3.265 ± 0.196
Staphylococcus aureus; 31 hours
  absorbance at 600 nm: 3.608 ± 0.271
[1]
  inhibition of growth of Escherichia coli (Gram-negative): does not inhibit the growth
MDCK cells; 0 to 48 hours
  inhibition of MDCK cell proliferation (percent increase in cell number): reversibly inhibited MDCK cell proliferation
MDCK cells; another 48 hours after washing out
  reversibility of inhibition of cell proliferation: reversible
